Assay [1] has as its target T1, human TLR7 (Homo sapiens, UniProt Q9NYK1).
T1 sequence (Q9NYK1 27-1049): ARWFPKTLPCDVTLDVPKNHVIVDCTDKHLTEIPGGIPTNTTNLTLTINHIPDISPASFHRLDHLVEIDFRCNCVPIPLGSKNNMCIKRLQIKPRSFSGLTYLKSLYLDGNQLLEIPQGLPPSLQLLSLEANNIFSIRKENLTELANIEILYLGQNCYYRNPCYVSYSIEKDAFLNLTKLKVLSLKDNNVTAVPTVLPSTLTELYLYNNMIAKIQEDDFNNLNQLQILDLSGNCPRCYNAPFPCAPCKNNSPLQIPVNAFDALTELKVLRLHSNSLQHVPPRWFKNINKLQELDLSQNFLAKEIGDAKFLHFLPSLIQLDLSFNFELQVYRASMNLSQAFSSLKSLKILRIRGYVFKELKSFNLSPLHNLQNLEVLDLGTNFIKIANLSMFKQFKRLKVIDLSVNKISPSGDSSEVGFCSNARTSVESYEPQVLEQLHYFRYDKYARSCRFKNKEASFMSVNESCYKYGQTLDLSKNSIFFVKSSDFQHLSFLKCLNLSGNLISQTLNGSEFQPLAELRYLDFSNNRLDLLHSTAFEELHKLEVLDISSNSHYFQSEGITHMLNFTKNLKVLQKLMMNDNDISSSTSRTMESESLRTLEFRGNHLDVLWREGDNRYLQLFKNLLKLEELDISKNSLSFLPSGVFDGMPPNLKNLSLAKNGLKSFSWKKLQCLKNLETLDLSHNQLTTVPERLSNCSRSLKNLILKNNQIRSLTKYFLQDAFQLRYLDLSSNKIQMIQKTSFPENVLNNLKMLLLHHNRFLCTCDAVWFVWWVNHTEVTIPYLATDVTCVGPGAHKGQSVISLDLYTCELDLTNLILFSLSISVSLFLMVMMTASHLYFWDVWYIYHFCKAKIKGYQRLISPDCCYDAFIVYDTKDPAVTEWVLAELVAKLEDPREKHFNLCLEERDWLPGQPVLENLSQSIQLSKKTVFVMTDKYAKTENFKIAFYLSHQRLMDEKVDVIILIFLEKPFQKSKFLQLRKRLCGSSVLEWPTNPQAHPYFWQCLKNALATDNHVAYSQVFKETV
The assay is described as follows: TLR7 stimulation determined using HEK-Blue Detection. It is filed as cell-based. On the set-up: expressed in transfected cells; host or cells: HEK293 (HEK-Blue hTLR7). The conditions noted are these: HEK-Blue hTLR7 cells, HEK-Blue Detection (A77-A124), 16 hr, relative to Resiquimod maximum. The text has this: TLR7 Stimulation Determined Using HEK-Blue Detection
This assay was designed for studying the stimulation of human TLR7 protein in HELK-Blue hTLR7 tool cell line by monitoring the activation of NF-κB. HEK-Blue hTLR7 cells were obtained by co-transfection of the hTLR7 gene and an optimized secreted embryonic alkaline phosphatase (SLAP) reporter gene into HEK293 cells. The SLAP reporter gene was placed under the control of the IFN-β minimal promoter fused to five NF-κB and AP-1-binding sites. Stimulation with a TLR7 ligand activates NF-κB and AP-1 which induce the expression of SLAP. Levels of SLAP can be easily determined with HEK-Blue Detection, a cell culture medium that allows for real-time detection of SLAP. HLK-Blue Detection contains all the nutrients necessary for cell growth and a specific SLAP color substrate. The hydrolysis of the substrate by SLAP produces a purple/blue color that can be measured with a spectrophotometer.
When growing to 50-80%0 confluency, HLK-Blue hTLR7 cells were plated into 96-well plate (costar 3599) at a density of 40000 cells/well. Then compounds were added with serial dilutions over 10 points with a 0.04 nM-10 μM final concentration range in 0.1% DMSO/BLK-Blue Detection. The plates were then incubated for 16 hr at 37° C. in […] and vortex for 30s before measurement. The optical density at 620-655 nm was read on BMG PHLRAstar FSX instrument. The EC50 for each compound was determined by calculating the percentages of the maximum activation identified with Resiquimod.

Assay [2] has as its target T2, human TLR 8 protein (Homo sapiens, UniProt Q9NR97).
T2 construct: expressed in transfected cells; host or cells: HEK293 (HEK-Blue hTLR8)
T2 sequence (Q9NR97 27-1041): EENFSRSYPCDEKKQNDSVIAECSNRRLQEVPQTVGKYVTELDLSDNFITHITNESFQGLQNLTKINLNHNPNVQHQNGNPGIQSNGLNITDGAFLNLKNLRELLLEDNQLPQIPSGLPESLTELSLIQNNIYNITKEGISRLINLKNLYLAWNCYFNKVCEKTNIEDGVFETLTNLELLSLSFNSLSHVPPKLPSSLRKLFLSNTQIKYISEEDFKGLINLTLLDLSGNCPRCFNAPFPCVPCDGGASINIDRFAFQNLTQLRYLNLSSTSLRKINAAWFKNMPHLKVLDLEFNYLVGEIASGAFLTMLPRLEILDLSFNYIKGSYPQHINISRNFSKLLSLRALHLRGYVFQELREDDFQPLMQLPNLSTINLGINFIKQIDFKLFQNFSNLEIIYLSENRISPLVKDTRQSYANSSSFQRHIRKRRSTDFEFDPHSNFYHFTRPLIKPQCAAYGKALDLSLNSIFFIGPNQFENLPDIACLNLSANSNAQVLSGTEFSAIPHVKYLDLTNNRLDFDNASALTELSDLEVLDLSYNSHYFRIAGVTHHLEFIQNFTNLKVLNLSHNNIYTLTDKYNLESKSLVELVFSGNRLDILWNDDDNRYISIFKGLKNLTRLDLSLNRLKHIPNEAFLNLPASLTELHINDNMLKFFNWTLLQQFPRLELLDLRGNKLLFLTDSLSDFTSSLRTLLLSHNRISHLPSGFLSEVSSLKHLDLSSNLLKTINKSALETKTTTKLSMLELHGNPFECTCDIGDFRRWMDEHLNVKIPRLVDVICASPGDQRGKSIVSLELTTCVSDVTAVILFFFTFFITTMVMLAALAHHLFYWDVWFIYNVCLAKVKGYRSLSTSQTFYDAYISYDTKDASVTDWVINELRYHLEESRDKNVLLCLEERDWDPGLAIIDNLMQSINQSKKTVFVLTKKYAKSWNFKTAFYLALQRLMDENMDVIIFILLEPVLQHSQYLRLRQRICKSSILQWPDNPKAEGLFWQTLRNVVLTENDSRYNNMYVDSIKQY
Kind of assay: TLR8 stimulation determined using HEK-Blue Detection. It is filed as cell-based. The note with it: HEK-Blue hTLR8 cells, 16 hr, relative to Resiquimod or Motolimod maximum. The text has this:
TLR8 Stimulation Determined Using HEK-Blue Detection
This assay was designed for studying the stimulation of human TLR 8 protein in HEK-Blue hTLR8 tool cell line by monitoring the activation of NF-1B. HEK-Blue hTLR8 cells were obtained by co-transfection of the hTLR8 gene and an optimized secreted embryonic alkaline phosphatase (SEAP) reporter gene into HEK293 cells. The SEAP reporter gene was placed under the control of the IFN-β minimal promoter fused to five NF-κB and AP-1-binding sites. Stimulation with a TLR 8 ligand activates NF-κB and AP-1 which induce the expression of SEAP. Levels of SEAP can be easily determined with HEK-Blue Detection, a cell culture medium that allows for real-time detection of SEAP. HEK-Blue Detection contains all the nutrients necessary for cell growth and a specific SEAP color substrate. The hydrolysis of the substrate by SEAP produces a purple/blue color that can be measured with a spectrophotometer.
When growing to 50-80% confluency, HEK-Blue hTLR7/8 cells were plated into 96-well plate (costar 3599) at a density of 40000 cells/well. Then compounds were added with serial dilutions over 10 points with a 1 nM-10 uM final concentration range in 0.1% DMSO/HEK-Blue Detection. The plates were then incubated for 16 hr at 37° C. in 5% CO2. The optical density at 620-655 nm was read on BMG PHERAstar FSX instrument. The EC50 for each compound was determined by calculating the percentages of the maximum activation identified with Resiquimod or Motolimod.

Regarding `CCCC(CCO)Oc1nc(N)c2ncc(Cc3cccc(OCCNC)c3OC)n2n1` (single isomer, unassigned) [Compound A118, (R or S)-3-((4-amino-7-(2-methoxy-3-(2-(methylamino)ethoxy)benzyl)imidazo[2,1-f][1,2,4]triazin-2-yl)oxy)hexan-1-ol], the figures for the EC50 in assay [1] and in assay [2] were 11 nM and 21 nM, respectively.

With `CCCC(CCO)Oc1nc(N)c2ncc(Cc3ccc(CCNC)cc3)n2n1` (single isomer, unassigned) [Compound A119, (R or S)-3-((4-amino-7-(4-(2-(methylamino)ethyl)benzyl)imidazo[2,1-f][1,2,4]triazin-2-yl)oxy)hexan-1-ol], the values for the EC50 in assay [1] and in assay [2] were 146 nM and 2970 nM, respectively.

On to `CCCC(CCO)Oc1nc(N)c2ncc(Cc3ccc(CCNC)cc3)n2n1` (single isomer, unassigned) [Compound A120, (S or R)-3-((4-amino-7-(4-(2-(methylamino)ethyl)benzyl)imidazo[2,1-f][1,2,4]triazin-2-yl)oxy)hexan-1-ol], for which the EC50 (as a rule, the concentration at which the effect is half-maximal) worked out at 3.9 nM in assay [1] and 59 nM in assay [2].

Consider `CCCC(CCO)Oc1nc(N)c2ncc(Cc3ccc(OCCNC)cc3OCC)n2n1` (single isomer, unassigned) [Compound A121, (R or S)-3-((4-amino-7-(2-ethoxy-4-(2-(methylamino)ethoxy)benzyl)imidazo[2,1-f][1,2,4]triazin-2-yl)oxy)hexan-1-ol], for which the figures for the EC50 in assay [1] and in assay [2] were 0.63 nM and 19 nM, respectively.

Consider `CCCC(CCO)Oc1nc(N)c2ncc(Cc3ccc(OCC(C)NC)nc3)n2n1` (single isomer, unassigned) [Compound A122, (R or S)-3-((4-amino-7-((6-(2-(methylamino)propoxy)pyridin-3-yl)methyl)imidazo[2,1-f][1,2,4]triazin-2-yl)oxy)hexan-1-ol], for which the EC50 in assay [1] came out at 6 nM; in assay [2], 113 nM.

For `CCCC(CCO)Oc1nc(N)c2ncc(Cc3c(F)cc(OCCNC)cc3F)n2n1` (single isomer, unassigned) [Compound A123, (R or S)-3-((4-amino-7-(2,6-difluoro-4-(2-(methylamino)ethoxy)benzyl)imidazo[2,1-f][1,2,4]triazin-2-yl)oxy)hexan-1-ol], the EC50 in assay [1] is 0.7 nM; in assay [2], 15 nM.

Take `CCCC(CCO)Oc1nc(N)c2ncc(Cc3ccc(OCCNC)c4ccccc34)n2n1` (single isomer, unassigned) [Compound A124, (R or S)-3-((4-amino-7-((4-(2-(methylamino)ethoxy)naphthalen-1-yl)methyl)imidazo[2,1-f][1,2,4]triazin-2-yl)oxy)hexan-1-ol]: the EC50 in assay [1] turned out to be 1.2 nM; in assay [2] it was 105 nM.

Consider `CCCC(C)Oc1nc(N)c2ncc(Cc3ccc(OCCNC)nc3)n2n1` (centres unmarked) [Compound A77, 7-((6-(2-(methylamino)ethoxy)pyridin-3-yl)methyl)-2-(pentan-2-yloxy)imidazo[2,1-f][1,2,4]triazin-4-amine], for which the 50% effective concentration (EC50) is 19.2 nM in assay [1] and 293 nM in assay [2].

Take `CCCC(C)Oc1nc(N)c2ncc(Cc3cnc(OCCNC)c(C)c3)n2n1` (centres unmarked) [Compound A78, 7-((5-methyl-6-(2-(methylamino)ethoxy)pyridin-3-yl)methyl)-2-(pentan-2-yloxy)imidazo[2,1-f][1,2,4]triazin-4-amine]: the EC50 is 23 nM in assay [1] and 1140 nM in assay [2].

For `CCCC(CCO)Oc1nc(N)c2ncc(Cc3ccc(OCCNC)nc3)n2n1` (centres unmarked) [Compound A79, 3-((4-amino-7-((6-(2-(methylamino)ethoxy)pyridin-3 yl)methyl)imidazo[2,1-f][1,2,4]triazin-2-yl)oxy)hexan-1-ol], the EC50 in assay [1] turned out to be 10 nM; in assay [2] it was 69 nM.

As to `CNCCOc1ccc(Cc2cnc3c(N)nc(OCC4CCOC4)nn23)cn1` (centres unmarked) [Compound A80, 7-((6-(2-(methylamino)ethoxy)pyridin-3-yl)methyl)-2-((tetrahydrofuran-3-yl)methoxy)imidazo[2,1-f][1,2,4]triazin-4-amine], the figures for the 50% effective concentration (EC50) in assay [1] and in assay [2] were 446 nM and more than 10000 nM, respectively.

With `CCC(CC)Oc1nc(N)c2ncc(Cc3ccc(OCCNC)nc3)n2n1` [Compound A83, 7-((6-(2-(methylamino)ethoxy)pyridin-3-yl)methyl)-2-(pentan-3-yloxy)imidazo[2,1-f][1,2,4]triazin-4-amine], the EC50 in assay [1] came out at 42.6 nM; in assay [2], 458 nM.

Take `CCCC(CC)Oc1nc(N)c2ncc(Cc3ccc(OCCNC)nc3)n2n1` (centres unmarked) [Compound A84, 2-(hexan-3-yloxy)-7-((6-(2-(methylamino)ethoxy)pyridin-3-yl)methyl)imidazo[2,1-f][1,2,4]triazin-4-amine]: the EC50 worked out at 6.9 nM in assay [1] and 192 nM in assay [2].
